A word on the IC50: it is the concentration that inhibits the measured activity by half. A high value points to weaker potency.

This passage reports IC50 and DC50 results from patent US8003649B2 (AstraZeneca AB, priority 2007, dated 2011).

The target of one experiment is T1, Androgen Receptor (AR) (Homo sapiens, UniProt P10275, T878A).
T1 construct: cell based immuno-fluorescence assay using the LNCaP prostate epithelial cell line; endogenous in cells; host or cells: LNCaP clone FGC (ATCC CRL-1740)
T1 sequence (P10275 1-920 T878A): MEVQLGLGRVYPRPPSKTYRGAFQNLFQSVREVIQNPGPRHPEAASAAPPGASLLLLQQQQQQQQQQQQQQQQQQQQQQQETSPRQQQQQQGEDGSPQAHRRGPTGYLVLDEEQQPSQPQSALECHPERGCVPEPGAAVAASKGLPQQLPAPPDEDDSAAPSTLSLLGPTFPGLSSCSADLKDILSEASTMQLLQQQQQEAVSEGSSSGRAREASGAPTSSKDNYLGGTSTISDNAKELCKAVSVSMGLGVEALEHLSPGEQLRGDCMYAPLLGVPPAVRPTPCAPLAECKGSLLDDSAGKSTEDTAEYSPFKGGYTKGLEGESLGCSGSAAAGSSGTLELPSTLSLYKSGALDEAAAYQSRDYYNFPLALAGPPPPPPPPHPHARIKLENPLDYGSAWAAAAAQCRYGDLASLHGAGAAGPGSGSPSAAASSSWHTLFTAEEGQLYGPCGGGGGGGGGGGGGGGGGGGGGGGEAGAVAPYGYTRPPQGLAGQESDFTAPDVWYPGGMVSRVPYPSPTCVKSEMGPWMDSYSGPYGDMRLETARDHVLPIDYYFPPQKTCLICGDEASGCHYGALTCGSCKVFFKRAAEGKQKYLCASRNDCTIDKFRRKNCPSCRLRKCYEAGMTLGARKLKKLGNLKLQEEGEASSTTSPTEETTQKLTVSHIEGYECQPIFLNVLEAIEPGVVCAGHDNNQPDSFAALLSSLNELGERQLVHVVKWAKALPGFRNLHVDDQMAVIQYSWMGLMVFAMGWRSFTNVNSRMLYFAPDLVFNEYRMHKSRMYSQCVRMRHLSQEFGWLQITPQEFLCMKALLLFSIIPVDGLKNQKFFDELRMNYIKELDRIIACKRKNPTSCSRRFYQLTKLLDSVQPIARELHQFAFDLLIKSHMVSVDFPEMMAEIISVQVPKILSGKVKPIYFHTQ
Kind of experiment: LNCaP Androgen Receptor Down-regulation Cell Assay (immunofluorescence end point). The conditions noted are these: LNCaP prostate carcinoma cells, compound incubation 20-22 hours, 50% reduction of the AR signal. The class given is cell-based. The procedure, abridged:
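AR loss reported as IC50 from curve fits of fluorescence dose-response data, with AR immunostained and read by laser-scanning cytometry. Compound exposure was 20-22 h at 37° C in LNCaP cells grown in 5% charcoal-stripped FBS and plated overnight beforehand.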
Molecule `CS(=O)(=O)Oc1cccc(CN2CCN(c3ccc4nnc(C(F)(F)F)n4n3)CC2)c1` [Example 151, [3-[[4-[3-(trifluoromethyl)-[1,2,4]triazolo[4,3-b]pyridazin-6-yl]piperazin-1-yl]methyl]phenyl]methanesulfonate] registered a half-inhibitory concentration (IC50) of 3.1 µM.

The experiment is the same for the next values; noted with them: LNCaP prostate carcinoma cells, compound incubation 20-22 hours, 50% reduction of the AR signal; read-out: Androgen Receptor Down-regulation Assay (a) IC50/μM.
Regarding `FC(F)(F)c1nnc2ccc(N3CCN(Cc4cc[nH]c4)CC3)nn12` [Example 104, 6-[4-(1H-pyrrol-3-ylmethyl)piperazin-1-yl]-3-(trifluoromethyl)-[1,2,4]triazolo[4,3-b]pyridazine], the DC50 stood at 9.5 µM. Same read-out and setting: the same measure for `C[C@H]1CN(Cc2cccc(Br)n2)CCN1c1ccc2nnc(C(F)(F)F)n2n1` [Example 360]: 1 µM; for `FC(F)(F)c1nnc2ccc(N3CCN(Cc4cccc5c4OCCO5)CC3)nn12` [Example 76, 6-[4-(2,3-dihydro-1,4-benzodioxin-5-ylmethyl)piperazin-1-yl]-3-(trifluoromethyl)-[1,2,4]triazolo[4,3-b]pyridazine]: 2.3 µM. Consider `FC(F)(F)c1nnc2ccc(N3CCC(c4cccc(OCCN5CCOCC5)c4)CC3)nn12` [Example 676], for which the DC50 was 0.56 µM. On the same count and under the same terms, the same measure for `FC(F)(F)c1nnc2ccc(N3CCN(Cc4c[nH]c5ccc(Cl)cc45)CC3)nn12` [Example 280]: 0.78 µM; for `FC(F)(F)c1nnc2ccc(N3CCN(Cc4ccc5c(c4)OCO5)CC3)nn12` [Example 85, 6-[4-(1,3-benzodioxol-5-ylmethyl)piperazin-1-yl]-3-(trifluoromethyl)-[1,2,4]triazolo[4,3-b]pyridazine]: 1.6 µM; for `FC(F)(F)c1ccc(C2CCN(c3ccc4nnc(C(F)(F)F)n4n3)CC2)cc1` [Example 524]: 3.2 µM.

For `FC(F)C(F)(F)c1nnc2ccc(N3CCCN(Cc4ccccc4)CC3)nn12` [Example 2, 6-(4-benzyl-1,4-diazepan-1-yl)-3-(1,1,2,2-tetrafluoroethyl)-[1,2,4]triazolo[4,3-b]pyridazine], the DC50 amounted to 8.3 µM. On the same count and under the same terms, next, `CCOC(=O)c1cncc(C2=CCN(c3ccc4nnc(C(F)(F)F)n4n3)CC2)c1` [Example 608]: 2.7 µM. Same read-out and setting: the same measure for `FC(F)(F)c1ccc(CN2CC3CN(c4ccc5nnc(C(F)(F)F)n5n4)CC3C2)cc1` (stereo not shown) [Example 199, 3-(trifluoromethyl)-6-[2-[[4-(trifluoromethyl)phenyl]methyl]-1,3,3a,4,6,6a-hexahydropyrrolo[3,4-c]pyrrol-5-yl]-[1,2,4]triazolo[4,3-b]pyridazine]: 1.9 µM. On the same count and under the same terms, next, `O=C(CCCN1CCCC1)Nc1ccc(C2CCN(c3ccc4nnc(C(F)(F)F)n4n3)CC2)cc1` [Example 667]: 1 µM. For the molecule `CNC(=O)c1ccc(C2CCN(c3ccc4nnc(C(F)(F)F)n4n3)CC2)cc1` [Example 522], the DC50 is 3.9 µM. For `Fc1ccccc1OC1CCN(c2ccc3nnc(C(F)(F)F)n3n2)CC1` [Example 529], the DC50 worked out at 1.9 µM.

For the molecule `OC1(c2nccs2)CCN(c2ccc3nnc(C(F)(F)F)n3n2)CC1` [Example 324, 4-(1,3-thiazol-2-yl)-1-[3-(trifluoromethyl)[1,2,4]triazolo[4,3-b]pyridazin-6-yl]piperidin-4-ol], the DC50 was 5.9 µM. Turning to `FC(F)(F)Sc1cccc(CN2CCN(c3ccc4nnc(C(F)(F)F)n4n3)CC2)c1` [Example 116, 3-(trifluoromethyl)-6-[4-[[3-(trifluoromethylsulfanyl)phenyl]methyl]piperazin-1-yl]-[1,2,4]triazolo[4,3-b]pyridazine], the DC50 came out at 1.1 µM. On the same count and under the same terms, the same measure for `FC(F)(F)c1nnc2ccc(N3CCC(Cc4ccncc4)CC3)nn12` [Example 538]: 2.3 µM; for `N#Cc1ccc2[nH]cc(CN3CCN(c4ccc5nnc(C(F)(F)F)n5n4)CC3)c2c1` [Example 278]: 0.65 µM. Take `FC(F)(F)c1ccccc1OCC1CCN(c2ccc3nnc(C(F)(F)F)n3n2)CC1` [Example 471]: the DC50 is 2 µM.
